Reference: US20220259202A1, “1-(4-(AMINOMETHYL)BENZYL)-2-BUTYL-2H-PYRAZOLO[3,4-C]QUINOLIN-4-AMINE DERIVATIVES AND RELATED COMPOUNDS AS TOLL-LIKE RECEPTOR (TLR) 7/8 AGONISTS, AS WELL AS ANTIBODY DRUG CONJUGATES THEREOF FOR USE IN CANCER THERAPY AND DIAGNOSIS” (SUTRO BIOPHARMA, INC., priority 2019, published 2022)

Experiments:
mouse TLR2 = molecular target: T1, mouse TLR2 (Mus musculus, UniProt Q9QUN7); assay: HEK293 SEAP reporter assay, other TLRs (Biological Example 3); assay type: cell-based; conditions: 16 hrs, up to 1 μM
T1 construct: host or cells: HEK293
T1 sequence (Q9QUN7 25-784): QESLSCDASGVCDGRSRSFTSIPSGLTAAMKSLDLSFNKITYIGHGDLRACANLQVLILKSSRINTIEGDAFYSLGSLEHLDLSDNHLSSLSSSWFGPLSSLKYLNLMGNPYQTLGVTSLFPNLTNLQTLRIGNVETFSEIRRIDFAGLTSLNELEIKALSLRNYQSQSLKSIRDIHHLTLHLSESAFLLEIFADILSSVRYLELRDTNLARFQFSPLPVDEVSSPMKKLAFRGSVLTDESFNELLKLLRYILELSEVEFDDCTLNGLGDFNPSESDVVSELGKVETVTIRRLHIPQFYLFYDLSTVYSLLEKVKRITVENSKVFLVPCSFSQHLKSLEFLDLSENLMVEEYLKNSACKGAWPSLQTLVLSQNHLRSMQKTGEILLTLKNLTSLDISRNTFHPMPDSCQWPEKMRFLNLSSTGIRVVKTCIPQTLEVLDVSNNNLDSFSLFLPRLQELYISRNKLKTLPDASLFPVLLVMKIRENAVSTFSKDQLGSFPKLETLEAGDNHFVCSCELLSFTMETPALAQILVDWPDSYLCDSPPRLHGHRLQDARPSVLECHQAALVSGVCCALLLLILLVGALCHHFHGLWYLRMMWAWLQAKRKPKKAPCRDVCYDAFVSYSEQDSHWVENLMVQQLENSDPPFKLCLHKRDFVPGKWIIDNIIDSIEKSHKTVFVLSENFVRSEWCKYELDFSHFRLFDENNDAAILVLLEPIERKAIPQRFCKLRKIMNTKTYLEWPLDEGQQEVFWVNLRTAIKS

mouse TLR13 = molecular target: T2, mouse TLR13 (Mus musculus, UniProt Q6R5N8); assay: as above; assay type: cell-based; conditions: 16 hrs, up to 1 μM
T2 construct: host or cells: HEK293
T2 sequence (Q6R5N8 69-991): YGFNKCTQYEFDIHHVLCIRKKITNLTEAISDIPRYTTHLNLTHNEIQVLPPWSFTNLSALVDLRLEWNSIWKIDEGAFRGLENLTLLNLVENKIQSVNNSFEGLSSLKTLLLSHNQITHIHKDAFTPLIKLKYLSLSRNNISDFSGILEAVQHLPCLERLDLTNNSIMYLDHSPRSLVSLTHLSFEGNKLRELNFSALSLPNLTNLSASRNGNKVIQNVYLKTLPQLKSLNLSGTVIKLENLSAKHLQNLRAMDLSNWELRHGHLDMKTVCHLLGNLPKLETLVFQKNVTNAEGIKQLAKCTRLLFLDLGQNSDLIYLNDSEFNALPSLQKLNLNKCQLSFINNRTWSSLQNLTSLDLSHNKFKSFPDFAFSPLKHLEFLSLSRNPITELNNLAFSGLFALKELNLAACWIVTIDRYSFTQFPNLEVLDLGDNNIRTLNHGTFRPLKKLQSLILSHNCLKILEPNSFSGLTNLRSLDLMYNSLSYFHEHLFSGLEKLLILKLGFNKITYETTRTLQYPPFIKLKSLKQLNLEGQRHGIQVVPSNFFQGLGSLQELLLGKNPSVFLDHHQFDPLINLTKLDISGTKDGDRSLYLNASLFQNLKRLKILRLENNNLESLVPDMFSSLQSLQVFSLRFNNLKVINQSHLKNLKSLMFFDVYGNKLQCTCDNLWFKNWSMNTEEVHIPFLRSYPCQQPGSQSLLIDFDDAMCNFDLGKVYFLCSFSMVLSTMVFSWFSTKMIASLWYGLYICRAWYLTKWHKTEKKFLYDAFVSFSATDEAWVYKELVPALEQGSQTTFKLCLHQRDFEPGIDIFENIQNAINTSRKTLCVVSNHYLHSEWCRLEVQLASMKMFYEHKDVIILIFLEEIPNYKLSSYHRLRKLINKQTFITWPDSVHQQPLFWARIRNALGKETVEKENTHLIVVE

human and mouse TLRs = assay: HEK293 SEAP reporter panel of human and mouse TLRs, specificity; assay type: cell-based; conditions: 16 hrs
Excerpt: In this example, the activity of the Compound 1 to stimulate different human and mouse TLR pathways was investigated on HEK293 cells transfected with inducible SEAP (secreted embryonic alkaline phosphatase) reporter genes and also expressing different human TLRs (TLR2, TLR3, TLR4, TLR5, TLR7, TLR8, TLRS) or mouse TLRs (TLR2, TLR3, TLR4, TLR5, TLR7, TLR8, TLR13). Compound A
HEK293 reporter cell lines were purchased from Invivogen and cell lines were maintained in manufacture recommended culture medium with required supplemental antibiotics. On the day of assay, the cells were harvested with Accutase and counted by the Vi-CELL Cell Viability Analyzers. Cells were re-suspended in HEK blue detection medium and a total of 10000 cells were seeded in each well of a 384-well flat bottom plate. […] Assay plates were cultured at 37° C. in a CO2 incubator for 16 hrs. HEK-Blue™ Detection medium changes to a purple/blue color in the presence of secreted SEAP, which can be detected by spectrophotometry at 620-655 nm. Data was fitted with non-linear regression analysis, using a log(inhibitor) vs. response-variable slope, 3-parameter fit with GraphPad Prism.

human PBMCs = assay: Compound-induced cytokine release (ELISA); assay type: cell-based; conditions: IL-6, MCP-1, IL1Ra (FIG. 4A-4C); 24 hrs
Method: (§1) This example evaluates the ability of Compound 1 to induce cytokine release in human PBMCs, cyno PBMCs and mouse splenocytes. Compound A and resiquimod, above, were used as controls in the assays.
(§2) Human and cyno PBMCs, mouse splenocytes were isolated as described in previous example. On the day of the assay, 300k of PBMC or splenocytes in 50 μL of culture medium were seeded in 96-well cell culture plates. 50 μL of the test articles (formulated at 2× of starting concentration) were then added into the well. The cell mixtures were co-cultured in the presence of test articles and 10 μg/mL LPS-RS for 24 hrs (human PBMCs) or 48 hr (cyno PBMCs and mouse splenocytes). Released cytokines in cell culture medium were measured by ELISA.

mouse splenocytes = assay: Compound-induced cytokine release (ELISA); assay type: cell-based; conditions: IL-6, MCP-1, TNFα and IP-10 (FIG. 6A-6D); 48 hr
Method: as §1, §2

cyno PBMCs = assay: Compound-induced cytokine release (ELISA); assay type: cell-based, cynomolgus monkey; conditions: IL-6 and MCP-1 (FIG. 5A-5B); 48 hr
Method: as §1, §2

Row | SMILES | EC50 (mouse TLR2) | EC50 (mouse TLR13) | specificity among human and mouse TLRs (human and mouse TLRs) | cytokine release from human PBMCs (human PBMCs) | cytokine release from mouse splenocytes (mouse splenocytes) | cytokine release from cyno PBMCs (cyno PBMCs)
1 | CCCCc1nc2c(N)nc3ccccc3c2n1Cc1ccc(CN)cc1 [Compound A, reference compound] | > 1000 nM | > 1000 nM | – | – | – | –
2 | CCCCn1nc2c(N)nc3ccccc3c2c1Cc1ccc(CN)cc1 [Compound 1, 1-(4-(aminomethyl)benzyl)-2-butyl-2H-pyrazolo[3,4-c]quinolin-4-amine] | > 1000 nM | > 1000 nM | very specific to human and mouse TLR7 and human TLR8 | stimulated strong | stimulated strong | stimulated strong
